According to patent publication US10280229B2, “Linkers and their application towards ADC” (MEDSHINE DISCOVERY INC., priority 2014, dated 2019):

Target: bovine cathepsin B (Bos taurus, UniProt P07688)
Test: Rate of hydrolysis of fluorescent dipeptide substrates incubated with bovine cathepsin B (release of 7-AMC)
Assay type: biochemical
Conditions: incubation with bovine cathepsin B
Procedure: A convenient method was developed to identify suitable dipeptide units for the use in drug-linker intermediates. Cbz-protected dipeptides incorporated a fluorescent tag (7-amino-4-methylcouramin, 7-AMC) via a para-aminobenzyl carbonyl fragment were prepared by standard peptide chemistry as shown in Scheme 1. These dipeptide substrates were then incubated with bovine cathepsin B under a similar condition as described by Dubowchik (Biorg. Med. Chem. Lett. 1998, 8, 3341-3346). Rate of hydrolysis by bovine cathepsin B was measured by the release of 7-AMC (Table 1). Novel dipeptides with hydrolysis rates slower than the substrate A were rejected. The three dipeptide units in FS-9, FS-10 and FS-11 were selected as additional dipeptide units for drug-linker intermediate preparation.

Row | Compound | Rate of Hydrolysis [nmmol/min/mg]
1 | Cc1cc(=O)oc2cc(NC(=O)OCc3ccc(NC(=O)C(CC4CCC(CN)CC4)NC(=O)[C@@H](NC(=O)OCc4ccccc4)C(C)C)cc3)ccc12 (stereo partly drawn) | 20.9
2 | Cc1cc(=O)oc2cc(NC(=O)OCc3ccc(NC(=O)[C@H](CCCNC(N)=O)NC(=O)[C@@H](NC(=O)OCc4ccccc4)C(C)C)cc3)ccc12 [reference compound] | 2.67
3 | Cc1cc(=O)oc2cc(NC(=O)OCc3ccc(NC(=O)[C@H](CCCN4CCOCC4)NC(=O)[C@@H](NC(=O)OCc4ccccc4)C(C)C)cc3)ccc12 | 27.2
4 | Cc1cc(=O)oc2cc(NC(=O)OCc3ccc(NC(=O)[C@H](CCCN4CCCCC4)NC(=O)[C@@H](NC(=O)OCc4ccccc4)C(C)C)cc3)ccc12 | 25.1
5 | Cc1cc(=O)oc2cc(NC(=O)OCc3ccc(NC(=O)[C@H](CCCNC(N)=O)NC(=O)[C@@H](NC(=O)OCc4ccccc4)C4CCCNC4)cc3)ccc12 (stereo partly drawn) | 0
6 | Cc1cc(=O)oc2cc(NC(=O)OCc3ccc(NC(=O)[C@H](CCCNC(N)=O)NC(=O)[C@@H](NC(=O)OCc4ccccc4)C4CCS(=O)(=O)CC4)cc3)ccc12 | 0
7 | Cc1cc(=O)oc2cc(NC(=O)OCc3ccc(NC(=O)[C@H](CCCNC(N)=O)NC(=O)[C@@H](NC(=O)OCc4ccccc4)C4CCSCC4)cc3)ccc12 | 0
8 | Cc1cc(=O)oc2cc(NC(=O)OCc3ccc(NC(=O)[C@H](CCCNC(N)=O)NC(=O)[C@@H](NC(=O)OCc4ccccc4)C4CCNCC4)cc3)ccc12 | 0.84
9 | Cc1cc(=O)oc2cc(NC(=O)OCc3ccc(NC(=O)[C@H](CCCNC(N)=O)NC(=O)[C@@H](NC(=O)OCc4ccccc4)C4CCOCC4)cc3)ccc12 | 0.84
10 | CCOC(=O)N1CCC([C@H](NC(=O)OCc2ccccc2)C(=O)N[C@@H](CCCNC(N)=O)C(=O)Nc2ccc(COC(=O)Nc3ccc4c(C)cc(=O)oc4c3)cc2)CC1 | 0.63
11 | Cc1cc(=O)oc2cc(NC(=O)OCc3ccc(NC(=O)[C@H](CCCNC(N)=O)NC(=O)[C@@H](NC(=O)OCc4ccccc4)C4CC[S+]([O-])CC4)cc3)ccc12 (stereo partly drawn) | 0.55
12 | Cc1cc(=O)oc2cc(NC(=O)OCc3ccc(NC(=O)[C@H](CCCNC(N)=O)NC(=O)[C@@H](NC(=O)OCc4ccccc4)C4CCN(C)CC4)cc3)ccc12 | 0.59
